The source of these data is BindingDB's records for patent US10022387 (Incyte, 2018).

The target of experiment [1] is T1, Phosphatidylinositol 4,5-bisphosphate 3-kinase catalytic subunit delta isoform (Homo sapiens, UniProt O00329).
T1 sequence (O00329 whole entry): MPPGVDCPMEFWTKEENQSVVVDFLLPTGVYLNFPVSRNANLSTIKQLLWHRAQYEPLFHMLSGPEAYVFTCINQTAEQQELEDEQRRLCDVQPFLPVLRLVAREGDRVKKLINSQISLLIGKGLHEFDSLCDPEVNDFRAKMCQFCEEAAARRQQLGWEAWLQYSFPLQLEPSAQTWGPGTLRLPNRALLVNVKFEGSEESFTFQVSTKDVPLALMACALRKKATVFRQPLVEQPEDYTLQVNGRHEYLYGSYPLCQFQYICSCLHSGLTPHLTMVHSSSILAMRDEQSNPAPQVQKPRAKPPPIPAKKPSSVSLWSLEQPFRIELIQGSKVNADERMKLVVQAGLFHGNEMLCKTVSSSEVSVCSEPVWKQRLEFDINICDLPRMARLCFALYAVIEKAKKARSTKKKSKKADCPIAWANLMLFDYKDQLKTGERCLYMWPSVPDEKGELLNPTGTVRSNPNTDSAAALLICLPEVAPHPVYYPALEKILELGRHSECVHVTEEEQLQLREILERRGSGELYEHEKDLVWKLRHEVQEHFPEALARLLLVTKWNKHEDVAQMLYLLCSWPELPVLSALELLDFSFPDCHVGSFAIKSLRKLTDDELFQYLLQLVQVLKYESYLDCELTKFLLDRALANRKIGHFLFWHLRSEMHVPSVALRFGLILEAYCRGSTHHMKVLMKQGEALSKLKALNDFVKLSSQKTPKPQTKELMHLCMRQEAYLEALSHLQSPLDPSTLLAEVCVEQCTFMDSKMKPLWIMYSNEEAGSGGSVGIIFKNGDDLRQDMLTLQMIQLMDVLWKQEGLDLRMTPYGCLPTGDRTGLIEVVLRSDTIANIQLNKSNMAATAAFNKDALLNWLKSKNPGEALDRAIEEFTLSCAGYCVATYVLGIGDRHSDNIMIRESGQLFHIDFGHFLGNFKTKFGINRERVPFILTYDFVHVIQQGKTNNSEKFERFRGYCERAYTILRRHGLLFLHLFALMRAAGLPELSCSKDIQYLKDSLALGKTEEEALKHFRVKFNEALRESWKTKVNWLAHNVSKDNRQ
Description: PI3Kdelta Scintillation Proximity Assay. The conditions noted are these: pH 6.7; 25 °C. From the text: [γ-33P]ATP (10 mCi/mL) and Wheat Germ Agglutinin (WGA) YSi SPA Scintillation Beads was purchased from Perkin-Elmer (Waltham, Mass.). Lipid kinase substrate, D-myo-Phosphatidylinositol 4,5-bisphosphate (PtdIns(4,5)P2)D (+)-sn-1,2-di-O-octanoylglyceryl, 3-O-phospho linked (PIP2), CAS 204858-53-7, was purchased from Echelon Biosciences (Salt Lake City, Utah). PI3Kδ (p110δ/p85α) Recombinant Human Protein was purchased from Eurofins (St. Charles, Mo.). ATP, MgCl2, DTT, EDTA, MOPS and CHAPS were purchased from Sigma-Aldrich (St. Louis, Mo.).The kinase reaction was conducted in polystyrene 384-well Greiner Bio-one white plate from Thermo Fisher Scientific in a final volume of 25 μL. Inhibitors were first diluted serially in DMSO and added to the plate wells before the addition of other reaction components. The final concentration of DMSO in the assay was 2%. The PI3Kδ assay was carried out at room temperature in 20 mM MOPS, pH 6.7, 10 mM MgCl2, 5 mM DTT and CHAPS 0.03%. Reactions were initiated by the addition of ATP, the final reaction mixture consisted of 20 μM PIP2, 2 μM ATP, 0.5 μCi [γ-33P] ATP, 3.4 nM PI3Kδ. Reactions were incubated for 120 min and terminated by the addition of 40 μL SPA beads suspended in quench buffer: 163 mM potassium phosphate pH 7.8, 20% glycerol, 25 mM EDTA. The final concentration of SPA beads is 1.0 mg/mL. After the plate sealing, plates were shaken overnight at room temperature and centrifuged at 1500 rpm for 10 min, the radioactivity of the product was determined by scintillation counting on Topcount (Perkin-Elmer). IC50 determination was performed by fitting the curve of percent of the solvent control activity versus the log of the inhibitor concentration using the GraphPad Prism 6.0 software.

The target in experiment [2] is Phosphatidylinositol 4,5-bisphosphate 3-kinase catalytic subunit gamma isoform (Homo sapiens, UniProt P48736). Put plainly: PI3K-gamma Scintillation Proximity Assay. The conditions noted are these: pH 6.7; 25 °C. The source says:
γ-33P]ATP (10 mCi/mL) and Wheat Germ Agglutinin (WGA) YSi SPA Scintillation Beads was purchased from Perkin-Elmer (Waltham, Mass.). Lipid kinase substrate, D-myo-Phosphatidylinositol 4,5-bisphosphate (PtdIns(4,5)P2)D (+)-sn-1,2-di-O-octanoylglyceryl, 3-O-phospho linked (PIP2), CAS 204858-53-7, was purchased from Echelon Biosciences (Salt Lake City, Utah). PI3Kγ (p110γ) Recombinant Human Protein was purchased from Life technology (Grand Island, N.Y.). ATP, MgCl2, DTT, EDTA, MOPS and CHAPS were purchased from Sigma-Aldrich (St. Louis, Mo.).The kinase reaction was conducted in polystyrene 384-well Greiner Bio-one white plate from Thermo Fisher Scientific in a final volume of 25 μL. Inhibitors were first diluted serially in DMSO and added to the plate wells before the addition of other reaction components. The final concentration of DMSO in the assay was 2%. The PI3Kγ assay was carried out at room temperature in 20 mM MOPS, pH 6.7, 10 mM MgCl2, 5 mM DTT and CHAPS 0.03%. Reactions were initiated by the addition of ATP, the final reaction mixture consisted of 20 μM PIP2, 2 μM ATP, 0.5 μCi [γ-33P] ATP, 13 nM PI3Kγ. […] After the plate sealing, plates were shaken overnight at room temperature and centrifuged at 1500 rpm for 10 min, the radioactivity of the product was determined by scintillation counting on Topcount (Perkin-Elmer). […]

A value given as a limit tells only on which side of the number the result lay.

Sequence of Phosphatidylinositol 4,5-bisphosphate 3-kinase catalytic subunit gamma isoform (P48736 whole entry, canonical isoform): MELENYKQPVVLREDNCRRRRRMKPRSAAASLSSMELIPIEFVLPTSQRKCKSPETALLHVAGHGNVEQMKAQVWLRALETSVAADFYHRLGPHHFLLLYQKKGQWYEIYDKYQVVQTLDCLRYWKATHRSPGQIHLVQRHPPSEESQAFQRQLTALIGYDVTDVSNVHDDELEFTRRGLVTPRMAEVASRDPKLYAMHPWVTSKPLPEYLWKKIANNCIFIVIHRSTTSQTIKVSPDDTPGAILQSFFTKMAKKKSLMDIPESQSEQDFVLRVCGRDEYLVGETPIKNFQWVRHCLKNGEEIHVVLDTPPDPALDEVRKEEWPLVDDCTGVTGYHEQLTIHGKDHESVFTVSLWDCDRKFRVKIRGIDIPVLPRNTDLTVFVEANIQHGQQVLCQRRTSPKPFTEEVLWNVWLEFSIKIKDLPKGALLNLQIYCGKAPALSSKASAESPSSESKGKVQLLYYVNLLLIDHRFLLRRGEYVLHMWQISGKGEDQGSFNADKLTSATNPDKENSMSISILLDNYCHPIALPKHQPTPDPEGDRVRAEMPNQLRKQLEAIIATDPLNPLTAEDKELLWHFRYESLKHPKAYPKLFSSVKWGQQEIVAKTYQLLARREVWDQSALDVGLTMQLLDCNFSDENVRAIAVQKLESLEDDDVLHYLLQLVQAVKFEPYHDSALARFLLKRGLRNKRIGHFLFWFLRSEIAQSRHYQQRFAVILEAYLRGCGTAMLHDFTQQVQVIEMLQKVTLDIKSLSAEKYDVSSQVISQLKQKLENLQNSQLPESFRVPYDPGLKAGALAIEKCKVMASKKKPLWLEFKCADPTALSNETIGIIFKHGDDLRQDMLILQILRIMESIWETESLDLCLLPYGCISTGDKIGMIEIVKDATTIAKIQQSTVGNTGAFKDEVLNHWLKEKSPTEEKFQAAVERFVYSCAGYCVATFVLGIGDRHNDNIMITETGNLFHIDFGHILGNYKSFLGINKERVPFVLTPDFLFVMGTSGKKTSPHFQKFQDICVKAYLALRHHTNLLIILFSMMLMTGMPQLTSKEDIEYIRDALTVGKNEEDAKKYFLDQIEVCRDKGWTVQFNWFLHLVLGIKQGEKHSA

For the compound `CCS(=O)(=O)Nc1cncc(-c2ccc3nc(-c4nc5ccccc5[nH]4)oc3c2)c1` [US10022387, Example 73], the IC50 in experiment [1] was less than 5 µM.

With `COc1cncc(-c2ccc3nc(-c4cc5ccccc5[nH]4)oc3c2)c1` [US10022387, Example 4], the IC50 in experiment [1] is less than 5 µM.

Regarding `CC(=O)Nc1cc(-c2ccc3nc(-c4nc5ccccc5[nH]4)oc3c2)cnc1F` [US10022387, Example 33], the IC50 was less than 1 µM in experiment [2] and greater than 5 µM in experiment [1].
